According to the NIST ThermoML archive (doi:10.1016/j.jct.2015.10.001):
Numbers after ± are expanded uncertainties.

Experiment: mn = molality of the nth substance listed, in mol/kg
Conditions: 100 kPa, Liquid; for viscosity: Capillary tube (Ostwald / Ubbelohde) method; for electrical conductivity: Direct current cell with electrodes; for mass density: Vibrating tube method

CCCCn1cc[n+](C)c1.O=C([O-])c1ccccc1O [1-butyl-3-methylimidazolium salicylate] + O
Conditions	electrical conductivity [S/m]	mass density [kg/m3]	viscosity [mPa·s]
293.15 K, m1 = 0.001	0.007 ± 0.0012	–	–
293.15 K, m1 = 0.0037	0.0231 ± 0.0013	–	–
293.15 K, m1 = 0.00579	–	998.44 ± 1.6	–
293.15 K, m1 = 0.0058	–	–	1.031 ± 0.021
293.15 K, m1 = 0.0062	0.0356 ± 0.0014	–	–
293.15 K, m1 = 0.007	–	998.49 ± 1.6	–
293.15 K, m1 = 0.0071	–	–	1.035 ± 0.022
293.15 K, m1 = 0.0072	0.0399 ± 0.0015	–	–
293.15 K, m1 = 0.008	0.0439 ± 0.0016	–	–
293.15 K, m1 = 0.00801	–	998.53 ± 1.6	–
293.15 K, m1 = 0.01	0.0517 ± 0.0017	–	–
293.15 K, m1 = 0.01056	–	998.64 ± 1.6	–
293.15 K, m1 = 0.0117	–	–	1.046 ± 0.022
293.15 K, m1 = 0.01278	–	998.73 ± 1.6	–
293.15 K, m1 = 0.0144	0.0674 ± 0.0021	–	–
293.15 K, m1 = 0.0158	–	998.86 ± 1.6	–
293.15 K, m1 = 0.01707	–	998.92 ± 1.6	–
293.15 K, m1 = 0.0205	–	–	1.065 ± 0.022
293.15 K, m1 = 0.02056	–	999.07 ± 1.6	–
293.15 K, m1 = 0.0221	0.0901 ± 0.0028	–	–
293.15 K, m1 = 0.02523	–	999.27 ± 1.6	–
293.15 K, m1 = 0.0353	–	–	1.091 ± 0.023
293.15 K, m1 = 0.0384	–	–	1.096 ± 0.023
293.15 K, m1 = 0.0552	–	–	1.123 ± 0.023
293.15 K, m1 = 0.0765	–	–	1.155 ± 0.024
298.15 K, m1 = 0.001	0.0079 ± 0.0014	–	–
298.15 K, m1 = 0.0037	0.0262 ± 0.0015	–	–
298.15 K, m1 = 0.00579	–	997.28 ± 1.6	–
298.15 K, m1 = 0.0058	–	–	0.925 ± 0.019
298.15 K, m1 = 0.0062	0.0404 ± 0.0016	–	–
298.15 K, m1 = 0.007	–	997.33 ± 1.6	–
298.15 K, m1 = 0.0071	–	–	0.93 ± 0.019
298.15 K, m1 = 0.0072	0.0452 ± 0.0017	–	–
298.15 K, m1 = 0.008	0.0498 ± 0.0018	–	–
298.15 K, m1 = 0.00801	–	997.37 ± 1.6	–
298.15 K, m1 = 0.01	0.0588 ± 0.002	–	–
298.15 K, m1 = 0.01056	–	997.48 ± 1.6	–
298.15 K, m1 = 0.0117	–	–	0.943 ± 0.02
298.15 K, m1 = 0.01278	–	997.57 ± 1.6	–
298.15 K, m1 = 0.0144	0.0771 ± 0.0024	–	–
298.15 K, m1 = 0.0158	–	997.7 ± 1.6	–
298.15 K, m1 = 0.01707	–	997.75 ± 1.6	–
298.15 K, m1 = 0.0205	–	–	0.964 ± 0.02
298.15 K, m1 = 0.02056	–	997.9 ± 1.6	–
298.15 K, m1 = 0.0221	0.103 ± 0.0032	–	–
298.15 K, m1 = 0.02523	–	998.11 ± 1.6	–
298.15 K, m1 = 0.0353	–	–	0.993 ± 0.021
298.15 K, m1 = 0.0384	–	–	0.998 ± 0.021
298.15 K, m1 = 0.0552	–	–	1.026 ± 0.021
298.15 K, m1 = 0.0765	–	–	1.058 ± 0.022
303.15 K, m1 = 0.001	0.0089 ± 0.0016	–	–
303.15 K, m1 = 0.0037	0.0297 ± 0.0017	–	–
303.15 K, m1 = 0.00579	–	995.88 ± 1.6	–
303.15 K, m1 = 0.0058	–	–	0.838 ± 0.017
303.15 K, m1 = 0.0062	0.0454 ± 0.0018	–	–
303.15 K, m1 = 0.007	–	995.93 ± 1.6	–
303.15 K, m1 = 0.0071	–	–	0.842 ± 0.018
303.15 K, m1 = 0.0072	0.0507 ± 0.0019	–	–
303.15 K, m1 = 0.008	0.0559 ± 0.002	–	–
303.15 K, m1 = 0.00801	–	995.97 ± 1.6	–
303.15 K, m1 = 0.01	0.0659 ± 0.0022	–	–
303.15 K, m1 = 0.01056	–	996.07 ± 1.6	–
303.15 K, m1 = 0.0117	–	–	0.857 ± 0.018
303.15 K, m1 = 0.01278	–	996.17 ± 1.6	–
303.15 K, m1 = 0.0144	0.0871 ± 0.0027	–	–
303.15 K, m1 = 0.0158	–	996.29 ± 1.6	–
303.15 K, m1 = 0.01707	–	996.35 ± 1.6	–
303.15 K, m1 = 0.0205	–	–	0.879 ± 0.018
303.15 K, m1 = 0.02056	–	996.5 ± 1.6	–
303.15 K, m1 = 0.0221	0.118 ± 0.0036	–	–
303.15 K, m1 = 0.02523	–	996.7 ± 1.6	–
303.15 K, m1 = 0.0353	–	–	0.911 ± 0.019
303.15 K, m1 = 0.0384	–	–	0.917 ± 0.019
303.15 K, m1 = 0.0552	–	–	0.945 ± 0.02
303.15 K, m1 = 0.0765	–	–	0.979 ± 0.02
308.15 K, m1 = 0.001	0.0099 ± 0.0017	–	–
308.15 K, m1 = 0.0037	0.0328 ± 0.0018	–	–
308.15 K, m1 = 0.00579	–	994.27 ± 1.6	–
308.15 K, m1 = 0.0058	–	–	0.765 ± 0.016
308.15 K, m1 = 0.0062	0.0501 ± 0.002	–	–
308.15 K, m1 = 0.007	–	994.32 ± 1.6	–
308.15 K, m1 = 0.0071	–	–	0.77 ± 0.016
308.15 K, m1 = 0.0072	0.057 ± 0.0022	–	–
308.15 K, m1 = 0.008	0.0623 ± 0.0022	–	–
308.15 K, m1 = 0.00801	–	994.36 ± 1.6	–
308.15 K, m1 = 0.01	0.0745 ± 0.0025	–	–
308.15 K, m1 = 0.01056	–	994.46 ± 1.6	–
308.15 K, m1 = 0.0117	–	–	0.787 ± 0.016
308.15 K, m1 = 0.01278	–	994.55 ± 1.6	–
308.15 K, m1 = 0.0144	0.0986 ± 0.0031	–	–
308.15 K, m1 = 0.0158	–	994.68 ± 1.6	–
308.15 K, m1 = 0.01707	–	994.74 ± 1.6	–
308.15 K, m1 = 0.0205	–	–	0.811 ± 0.017
308.15 K, m1 = 0.02056	–	994.89 ± 1.6	–
308.15 K, m1 = 0.0221	0.133 ± 0.0041	–	–
308.15 K, m1 = 0.02523	–	995.09 ± 1.6	–
308.15 K, m1 = 0.0353	–	–	0.845 ± 0.018
308.15 K, m1 = 0.0384	–	–	0.851 ± 0.018
308.15 K, m1 = 0.0552	–	–	0.882 ± 0.018
308.15 K, m1 = 0.0765	–	–	0.916 ± 0.019
313.15 K, m1 = 0.001	0.011 ± 0.0019	–	–
313.15 K, m1 = 0.0037	0.0362 ± 0.002	–	–
313.15 K, m1 = 0.00579	–	992.45 ± 1.6	–
313.15 K, m1 = 0.0058	–	–	0.701 ± 0.015
313.15 K, m1 = 0.0062	0.0551 ± 0.0022	–	–
313.15 K, m1 = 0.007	–	992.5 ± 1.6	–
313.15 K, m1 = 0.0071	–	–	0.707 ± 0.015
313.15 K, m1 = 0.0072	0.0629 ± 0.0024	–	–
313.15 K, m1 = 0.008	0.0686 ± 0.0025	–	–
313.15 K, m1 = 0.00801	–	992.54 ± 1.6	–
313.15 K, m1 = 0.01	0.0826 ± 0.0028	–	–
313.15 K, m1 = 0.01056	–	992.64 ± 1.6	–
313.15 K, m1 = 0.0117	–	–	0.723 ± 0.015
313.15 K, m1 = 0.01278	–	992.73 ± 1.6	–
313.15 K, m1 = 0.0144	0.111 ± 0.0035	–	–
313.15 K, m1 = 0.0158	–	992.86 ± 1.6	–
313.15 K, m1 = 0.01707	–	992.91 ± 1.6	–
313.15 K, m1 = 0.0205	–	–	0.749 ± 0.016
313.15 K, m1 = 0.02056	–	993.06 ± 1.6	–
313.15 K, m1 = 0.0221	0.149 ± 0.0046	–	–
313.15 K, m1 = 0.02523	–	993.26 ± 1.6	–
313.15 K, m1 = 0.0353	–	–	0.783 ± 0.016
313.15 K, m1 = 0.0384	–	–	0.789 ± 0.016
313.15 K, m1 = 0.0552	–	–	0.819 ± 0.017
313.15 K, m1 = 0.0765	–	–	0.853 ± 0.018
